Key:
[1] = target: T1, recombinant human CL receptor/RAMP1 (CGRP receptor) (Homo sapiens (Human), UniProt O60894+Q16602); assay: Recombinant receptor functional assay (Assay B), cAMP HTRF; format: cell-based; conditions: Assay B: HEK 293 cells, 2,000 cells/well, human α-CGRP 1.2 nM, cAMP inflection point
Experimental: RECOMBINANT RECEPTOR: Human CL receptor (Genbank accession number L76380) was subcloned into the expression vector pIREShyg2 (BD Biosciences Clontech) as a 5′NheI and 3′ PmeI fragment. Human RAMP1 (Genbank accession number AJ001014) was subcloned into the expression vector pIRESpuro2 (BD Biosciences Clontech) as a 5′NheI and 3′NotI fragment. HEK 293 cells (human embryonic kidney cells; ATCC #CRL-1573) were cultured in DMEM with 4.5 g/L glucose, 1 mM sodium pyruvate and 2 mM glutamine supplemented with 10% fetal bovine serum (FBS), 100 units/mL penicillin and […] streptomycin, and maintained at 37° C. and 95% humidity. Cells were subcultured by treatment with 0.25% trypsin with 0.1% EDTA in HBSS. Stable cell line generation was accomplished by co-transfecting 10 μg of DNA with 30 μg Lipofectamine 2000 (Invitrogen) in 75 cm^2 flasks. CL receptor and RAMP1 expression constructs were co-transfected in equal amounts. Twenty-four hours after transfection the cells were diluted and selective medium (growth medium+300 μg/mL hygromycin and 1 μg/mL puromycin) was added the following day. A clonal cell line was generated by single cell deposition utilizing a FACS Vantage SE (Becton Dickinson). Growth medium was adjusted to 150 μg/mL hygromycin and 0.5 μg/mL puromycin for cell propagation.
RECOMBINANT RECEPTOR FUNCTIONAL ASSAY (Assay B): Cells were resuspended in DMEM/F12 (Hyclone) supplemented with 1 g/L BSA and 300 μM isobutyl-methylxanthine. Cells were then plated in a 384-well plate (Proxiplate Plus 384; 509052761; Perkin-Elmer) at a density of 2,000 cells/well and incubated with antagonist for 30 min at 37° C. Human α-CGRP was then added to the cells at a final concentration of 1.2 nM and incubated an additional 20 min at 37° C. Following agonist stimulation, the cells were processed for cAMP determination using the two-step procedure according to the manufacturer's recommended protocol (HTRF cAMP dynamic 2 assay kit; 62AM4PEC; Cisbio). Raw data were transformed into concentration of cAMP using a standard curve then dose response curves were plotted and inflection point (IP) values were determined

[2] = target: T1, recombinant human CL receptor/RAMP1 (CGRP receptor); assay: Recombinant receptor functional assay (Assay C), cAMP HTRF; format: cell-based; conditions: Assay C: HEK 293 cells, 3,500 cells/well, human α-CGRP 1 nM, cAMP inflection point
Experimental: Human RAMP1 (Genbank accession number AJ001014) was subcloned into the expression vector pIRESpuro2 (BD Biosciences Clontech) as a 5′NheI and 3′NotI fragment. […] Cells were subcultured by treatment with 0.25% trypsin with 0.1% EDTA in HBSS. Stable cell line generation was accomplished by co-transfecting 10 μg of DNA with 30 μg Lipofectamine 2000 (Invitrogen) in 75 cm^2 flasks. CL receptor and RAMP1 expression constructs were co-transfected in equal amounts. Twenty-four hours after transfection the cells were diluted and selective medium (growth medium+300 μg/mL hygromycin and 1 μg/mL puromycin) was added the following day. A clonal cell line was generated by single cell deposition utilizing a FACS Vantage SE (Becton Dickinson). Growth medium was adjusted to 150 μg/mL hygromycin and 0.5 μg/mL puromycin for cell propagation.

T1 sequence (Q16602 23-461): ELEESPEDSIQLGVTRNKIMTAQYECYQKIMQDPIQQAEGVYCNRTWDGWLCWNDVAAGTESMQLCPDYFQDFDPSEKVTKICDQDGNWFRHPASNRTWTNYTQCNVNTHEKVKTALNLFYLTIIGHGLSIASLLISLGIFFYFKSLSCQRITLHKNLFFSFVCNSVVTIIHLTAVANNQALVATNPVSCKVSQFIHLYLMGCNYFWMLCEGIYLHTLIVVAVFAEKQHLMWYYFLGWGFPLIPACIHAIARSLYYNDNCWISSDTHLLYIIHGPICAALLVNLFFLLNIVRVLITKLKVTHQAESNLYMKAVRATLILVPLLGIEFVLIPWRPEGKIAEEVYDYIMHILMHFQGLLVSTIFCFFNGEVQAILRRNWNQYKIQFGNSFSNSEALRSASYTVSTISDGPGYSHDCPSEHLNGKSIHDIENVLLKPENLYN
T1 sequence (O60894 27-148): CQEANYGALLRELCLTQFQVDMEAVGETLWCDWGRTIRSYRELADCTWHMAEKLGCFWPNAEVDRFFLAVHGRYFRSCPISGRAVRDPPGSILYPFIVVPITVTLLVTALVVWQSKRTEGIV

SMILES	IC50 [1] [nM]	IC50 [2] [nM]
O=C(NC1COC(c2ccccc2)Cc2cccnc21)c1cnc2c(c1)C[C@@]1(C2)C(=O)Nc2ncccc21 (single isomer, unassigned; isomer a) [9 isomer A]	–	1900
O=C(NC1CC(c2ccccc2)Cc2cccnc21)c1cnc2c(c1)C[C@]1(C2)C(=O)Nc2ncccc21 (single isomer, unassigned; isomer b) [5 isomer B]	4600	–
O=C(NC1CC(c2ccccc2)Cc2cccnc21)c1cnc2c(c1)C[C@]1(C2)C(=O)Nc2ncccc21 (single isomer, unassigned; isomer b) [6 isomer B]	150	–
O=C(NC1COC(c2ccccc2)Cc2cccnc21)c1cnc2c(c1)C[C@@]1(C2)C(=O)Nc2ncccc21 (single isomer, unassigned; isomer b) [9 isomer B]	–	1100
O=C(NC1COC(c2ccccc2)Cc2cccnc21)c1cnc2c(c1)C[C@@]1(C2)C(=O)Nc2ncccc21 (single isomer, unassigned; isomer c) [9 isomer C]	–	1100
N[C@@H]1c2cccnc2[C@@H](NC(=O)c2cnc3c(c2)C[C@@]2(C3)C(=O)Nc3ncccc32)CC[C@H]1c1cccc(F)c1F [Example 2, (6S)—N-[(5S,6S,9S)-5-Amino-6-(2,3-difluorophenyl)-6,7,8,9-tetrahydro-5H-cyclohepta[b]pyridin-9-yl]-2′-oxo-1′,2′,5,7-tetrahydrospiro[cyclopenta[b]pyridine-6,3′-pyrrolo[2,3-b]pyridine]-3-carboxamide]	290	–
O=C(N[C@H]1CC[C@H](c2cccc(F)c2F)Cc2cccnc21)c1cnc2c(c1)C[C@@]1(C2)C(=O)Nc2ncccc21 [Example 7A, (S)—N-((6S,9S)-6-(2,3-difluorophenyl)-6,7,8,9-tetrahydro-5H-cyclohepta[b]pyridin-9-yl)-2′-oxo-1′,2′,5,7-tetrahydrospiro[cyclopenta[b]pyridine-6,3′-pyrrolo[2,3-b]pyridine]-3-carboxamide]	380	–

Further molecules by falling IC50 [1], results first:

IC50 [1] [nM]	IC50 [2] [nM]	SMILES
78	–	O=C(NC1CC(c2ccccc2)Cc2cccnc21)c1cnc2c(c1)C[C@@]1(C2)C(=O)Nc2ncccc21 (single isomer, unassigned; isomer a) [6 isomer A]
65	–	N[C@H]1c2cccnc2[C@@H](NC(=O)c2cnc3c(c2)C[C@@]2(C3)C(=O)Nc3ncccc32)CC[C@H]1c1cccc(F)c1F [Example 4, (6S)—N-[(5R,6S,9S)-5-Amino-6-(2,3-difluorophenyl)-6,7,8,9-tetrahydro-5H-cyclohepta[b]pyridin-9-yl]-2′-oxo-1′,2′,5,7-tetrahydrospiro[cyclopenta[b]pyridine-6,3′-pyrrolo[2,3-b]pyridine]-3-carboxamide]
22	–	O=C(NC1CC(c2ccccc2)Cc2cccnc21)c1cnc2c(c1)C[C@@]1(C2)C(=O)Nc2ncccc21 (single isomer, unassigned; isomer a) [5 isomer A]
6.3	–	N[C@H]1c2cccnc2[C@H](NC(=O)c2cnc3c(c2)C[C@@]2(C3)C(=O)Nc3ncccc32)CC[C@H]1c1cccc(F)c1F [Example 3, (6S)—N-[(5R,6S,9R)-5-Amino-6-(2,3-difluorophenyl)-6,7,8,9-tetrahydro-5H-cyclohepta[b]pyridin-9-yl]-2′-oxo-1′,2′,5,7-tetrahydrospiro[cyclopenta[b]pyridine-6,3′-pyrrolo[2,3-b]pyridine]-3-carboxamide]
4.5	–	O=C(N[C@@H]1CC[C@@H](c2cccc(F)c2F)Cc2cccnc21)c1cnc2c(c1)C[C@@]1(C2)C(=O)Nc2ncccc21 [Example 7B, (S)—N-((6R,9R)-6-(2,3-difluorophenyl)-6,7,8,9-tetrahydro-5H-cyclohepta[b]pyridin-9-yl)-2′-oxo-1′,2′,5,7-tetrahydrospiro[cyclopenta[b]pyridine-6,3′-pyrrolo[2,3-b]pyridine]-3-carboxamide]
0.93	–	N[C@@H]1c2cccnc2[C@H](NC(=O)c2cnc3c(c2)C[C@@]2(C3)C(=O)Nc3ncccc32)CC[C@H]1c1cccc(F)c1F [Example 1, (6S)—N-[(5S,6S,9R)-5-Amino-6-(2,3-difluorophenyl)-6,7,8,9-tetrahydro-5H-cyclohepta[b]pyridin-9-yl]-2′-oxo-1′,2′,5,7-tetrahydrospiro[cyclopenta[b]pyridine-6,3′-pyrrolo[2,3-b]pyridine]-3-carboxamide]

— patent US9227973B2, “Pyridine CGRP receptor antagonists” (Merck Sharp & Dohme Corp., priority 2012, dated 2016)
